Experimental data: patent publication US20040175691A1, “Use of the KCNQ2 and KCNQ3 genes for the discovery of agents useful in the treatment of neurological disorders” (priority 1998, published 2004)

Columns and labels:
hKCNQ2 potassium channel = target: T1, hKCNQ2 potassium channel (Homo sapiens, UniProt O43526, DEL417-446); assay: Membrane potential-evoked fluorescence (FLIPR, DiBAC) in HEK 293E cells stably expressing hKCNQ2; assay type: cell-based; details: FIG. 7
T1 construct: Full-length hKCNQ2 cDNAs were amplified from adult human brain cDNA; expressed in transfected cells; host or cells: 293 EBNA (HEK 293E) cells, episomal plasmid pm3AR-hKCNQ2-1, hygromycin B selection
Description: The ability of KCNQ2 modulators to alter membrane potential was assessed using a fluorescence imaging plate reader (FLIPR). Cultured HEK 293E cells expressing hKCNQ2 channels are plated on poly-D-lysine-coated 96-well Costar microplates (#3603) at 300,000-750,000 cells/ml and allowed to reach confluence in DMEM (with 10% FBS and 250 ug/ml hygromycin B) at 37° C. and 5% CO2. After reaching confluence, growth medium is removed, replaced with a standard Hank's balanced salt solution containing 5 uM dibac(4)3, bis-oxonol (Molecular Probes # B-438) at 37° C. The cell plate is then placed in the recording chamber (equilibrated to 37° C.) of a fluorescence imaging plate reader (FLIPR; Molecular Devices) along with two drug plates (one containing standard Hank's balanced salt solution+dibac and the other containing standard Hank's balanced salt solution+dibac+test compound at various experimental concentrations).
These cells were loaded with the voltage-sensitive fluorescent dye, DiBAC, that distributes across cell membranes in a voltage-dependent manner. As cells depolarize (become more positive inside), more dye enters the cells and an increase in fluorescence occurs.
In FIG. 7, the relative effects of several M-current modulators on the flourescence of HEK 293E cells stably expressing the hKCNQ2 potassium channel is shown. These cells were loaded with the voltage-sensitive fluorescent dye, DiBAC, that distributes across cell membranes in a voltage-dependent manner. As cells depolarize, more dye enters the cells and an increase in fluorescence occurs. Conversely, as cells hyperpolarize (become more negative inside), more dye leaves the cells and a decrease in fluorescence occurs.

KCNQ2 = KCNQ2 (Homo sapiens, UniProt O43526, DEL417-446); assay: Blockade of KCNQ2 channels expressed in Xenopus oocytes; assay type: cell-based; parameters: Full-length KCNQ2 cDNAs were amplified from adult human brain cDNA; expressed in transfected cells; host or cells: Xenopus oocytes injected with cRNA; details: homomultimeric KCNQ2, oocytes; Hill coefficient set to unity; read-out: KD for TEA block of KCNQ2 channels
Description: (§1) Method: Full-length KCNQ2 cDNAs were amplified from adult human brain cDNA using the following primers ([…], […]) with the Expand Fidelity enzyme mixture (Boehringer Mannheim, Indianapolis). […] This region is also alternatively spliced in the KCNQ2 cDNA clone described by Biervert et al. (1998). Preparation, injection of cRNA and recording from oocytes was performed at room temperature as described previously (Dixon et al. 1996). The standard extracellular recording solution contained: 82 mM NaCl, 2 mM KCl, 1.8 mM CaCl2, 1 mM MgCl2, and 5 mM Na-HEPES (pH 7.6). Data collection and analysis were performed using pClamp software (Axon Instruments, Foster City, Calif.).
IC50 values are all expressed in μM, mean±s.e.m.

KCNQ2 + KCNQ3 = target: T2, KCNQ2 + KCNQ3 (UniProt O43526+O88944, DEL417-446); assay: Blockade of KCNQ2+KCNQ3 channels expressed in Xenopus oocytes; assay type: cell-based, human KCNQ2, rat KCNQ3
T2 construct: Full-length KCNQ2 cDNAs were amplified from adult human brain cDNA; Multiple full-length cDNA clones were amplified in independent PCR reactions from rat SCG cDNA; expressed in transfected cells; host or cells: Xenopus oocytes injected with cRNA
Description: as §1
Holding potential was −60 mV and the cell was repetitively depolarized to −30 mV for 1 minute to reach steady-state blockade. Tail currents were recorded at −50 mV.
IC50 values are all expressed in μM, mean±s.e.m. In cases where the IC50 values were greater than 100 μM the exact value is not reported due to limited solubility in the drug.

M-current = target: T3, M-current (Rattus norvegicus, UniProt O88943+O88944); assay: Blockade of native M-current in SCG neurons (voltage clamp, intact ganglia); assay type: cell-based; details: rat sympathetic neurons; read-out: KD for TEA blockade of native M-current
T3 construct: from tissue
Description: Method: Recordings of the M-current in sympathetic neurons in intact ganglia were performed at room temperature as described previously (Wang and McKinnon, 1995). The standard extracellular recording solution was: NaCl (133 mM, KCl (4.7 mM), NaH2PO4 (1.3 mM), NaHCO3 (16.3 mM), CaCl2 (2 mM), MgCl2 (1.2 mM) and glucose (1.4 g/liter), bubbled with 95% O2-5% CO2 to give pH 7.2-7.4.
A. Blockade of M-current in SCG neurons by XE991. Holding potential was −30 mV and step potential was −50 mV for 1 second. The shift in holding current following drug application is due to the inhibition of M-current activated at the holding potential.
Maximal block of native M-current was 93±2%. Data points are averages and error bars represent s.e.m.

Relative effect on fluorescence / membrane potential (hKCNQ2 potassium channel; 100 μM) | Structure (SMILES) | Relative effect on fluorescence / membrane potential (hKCNQ2 potassium channel; 3 μM) | Kd (KCNQ2) [mM] | Kd (KCNQ2 + KCNQ3; co-injection of KCNQ2 and KCNQ3 mRNAs, read-out: KD for TEA block of KCNQ2+KCNQ3 channels) [mM] | Hill coefficient of TEA block of KCNQ2+KCNQ3 channels (KCNQ2 + KCNQ3; dose response fitted with Hill equation) | Kd (M-current) [mM]
apparent membrane hyperpolarization | Nc1ccc(CC2(Cc3ccc(N)cc3)C(=O)N(c3ccccc3)c3ccccc32)cc1 [X7315] | no effect |  |  |  | 
 | O=C1c2ccccc2C(Cc2ccnc(F)c2)(Cc2ccnc(F)c2)c2ccccc21 [XR543] | more membrane depolarization than linopirdine |  |  |  | 
 | CC[N+](CC)(CC)CC [TEA, tetraethylammonium] |  | 0.16 ± 0.02 | 3.5 ± 0.7 | 0.82±0.03 | 6.1
